Source: the supplement of paper PMC10307832

What was measured:
Assay in all cases: relative viability (nuclei count vs DMSO), 5 days (fraction); higher = more cells survive
Etoposide + Olaparib = compound: COc1cc([C@@H]2c3cc4c(cc3[C@@H](O[C@@H]3O[C@@H]5CO[C@@H](C)O[C@H]5[C@H](O)[C@H]3O)[C@H]3COC(=O)[C@H]23)OCO4)cc(OC)c1O [Etoposide] + O=C(c1cc(Cc2n[nH]c(=O)c3ccccc23)ccc1F)N1CCN(C(=O)C2CC2)CC1 [Olaparib] (partner 8 µM)
Summary of the method: (§1)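 Lung cancer cell lines were seeded in 1536-well plates and dosed by pin tool the next day, with either a single drug or a fixed anchor-drug dose combined with five library-drug doses (not always all listed) spaced in √10 steps. Five days later, one step fixed the cells and stained their nuclei (final 0.05% Triton X-100, 1% formaldehyde, 1 ug/ml Hoechst), and nuclei were counted on 4× images. Relative viability is the nuclei count in treated wells divided by the count in vehicle wells, and each value is the median of duplicate plates.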

Etoposide + Crizotinib = compound: COc1cc([C@@H]2c3cc4c(cc3[C@@H](O[C@@H]3O[C@@H]5CO[C@@H](C)O[C@H]5[C@H](O)[C@H]3O)[C@H]3COC(=O)[C@H]23)OCO4)cc(OC)c1O [Etoposide] + C[C@@H](Oc1cc(-c2cnn(C3CCNCC3)c2)cnc1N)c1c(Cl)ccc(F)c1Cl [Crizotinib] (partner 1 µM)
Summary of the method: as §1

Bleomycin + Linsitinib = compound: CC1=C(N=C(N=C1N)[C@H](CC(=O)N)NC[C@@H](C(=O)N)N)C(=O)N[C@@H]([C@H](C2=CN=CN2)OC3C(C(C(C(O3)CO)O)O)OC4C(C(C(C(O4)CO)O)OC(=O)N)O)C(=O)N[C@H](C)[C@H]([C@H](C)C(=O)N[C@@H]([C@@H](C)O)C(=O)NCCC5=NC(=CS5)C6=NC(=CS6)C(=O)NCCC[S+](C)C)O [Bleomycin] + C[C@]1(O)C[C@@H](c2nc(-c3ccc4ccc(-c5ccccc5)nc4c3)c3c(N)nccn32)C1 [Linsitinib] (partner 1 µM); conditions: main component drawn
Summary of the method: as §1

Etoposide + Pemetrexed = compound: COc1cc([C@@H]2c3cc4c(cc3[C@@H](O[C@@H]3O[C@@H]5CO[C@@H](C)O[C@H]5[C@H](O)[C@H]3O)[C@H]3COC(=O)[C@H]23)OCO4)cc(OC)c1O [Etoposide] + Nc1nc2[nH]cc(CCc3ccc(C(=O)N[C@@H](CCC(=O)O)C(=O)O)cc3)c2c(=O)[nH]1 [Pemetrexed] (partner 0.2 µM)
Summary of the method: as §1

Cell Line | relative viability (Etoposide + Olaparib; first compound 0.01 µM) | relative viability (Etoposide + Olaparib; first compound 0.03162 µM) | relative viability (Etoposide + Olaparib; first compound 0.1 µM) | relative viability (Etoposide + Olaparib; first compound 0.3162 µM) | relative viability (Etoposide + Olaparib; first compound 1 µM) | relative viability (Etoposide + Crizotinib; first compound 0.01 µM) | relative viability (Etoposide + Crizotinib; first compound 0.03162 µM) | relative viability (Etoposide + Crizotinib; first compound 0.1 µM) | relative viability (Etoposide + Crizotinib; first compound 0.3162 µM) | relative viability (Etoposide + Crizotinib; first compound 1 µM) | relative viability (Bleomycin + Linsitinib; first compound 0.01 µM) | relative viability (Bleomycin + Linsitinib; first compound 0.03162 µM) | relative viability (Bleomycin + Linsitinib; first compound 0.1 µM) | relative viability (Bleomycin + Linsitinib; first compound 0.3162 µM) | relative viability (Bleomycin + Linsitinib; first compound 1 µM) | relative viability (Etoposide + Pemetrexed; first compound 0.01 µM) | relative viability (Etoposide + Pemetrexed; first compound 0.03162 µM) | relative viability (Etoposide + Pemetrexed; first compound 0.1 µM) | relative viability (Etoposide + Pemetrexed; first compound 0.3162 µM) | relative viability (Etoposide + Pemetrexed; first compound 1 µM)
NCI-H1299 | 0.954 | 0.964 | 0.936 | 0.833 | 0.65 | 0.965 | 1 | 1.04 | 0.948 | 0.757 | 0.879 | 0.978 | 0.854 | 0.481 | 0.245 | – | – | – | – | –
NCI-H1650 | 0.797 | 0.652 | 0.723 | 0.341 | 0.198 | 0.874 | 0.776 | 0.634 | 0.253 | 0.16 | – | – | – | – | – | 0.354 | 0.376 | 0.388 | 0.239 | 0.223
NCI-H1648 | – | 0.885 | 0.758 | 0.757 | 0.358 | – | – | – | – | – | – | – | – | – | – | – | 0.859 | 0.732 | 0.798 | 0.581
NCI-H2342 | 0.474 | 0.398 | 0.267 | 0.208 | 0.211 | – | – | – | – | – | – | – | – | – | – | 0.861 | 0.866 | 0.472 | 0.421 | 0.291
SW 900 | 0.913 | 0.924 | 0.968 | 0.359 | 0.224 | – | – | – | – | – | – | – | – | – | – | 0.419 | 0.543 | 0.522 | 0.47 | 0.204
NCI-H1395 | 0.444 | 0.453 | 0.458 | 0.479 | 0.397 | – | – | – | – | – | 0.715 | 0.843 | 0.666 | 0.626 | 0.391 | 0.765 | 0.894 | 0.758 | 0.823 | 0.599
A549 | 0.32 | 0.209 | 0.103 | 0.0476 | 0.037 | 0.734 | 0.624 | 0.406 | 0.152 | 0.083 | 0.514 | 0.472 | 0.384 | 0.0789 | 0.0779 | – | – | – | – | –
NCI-H2170 | 0.581 | 0.621 | – | 0.514 | 0.29 | 1.06 | 1.21 | – | 1 | 0.851 | – | – | – | – | – | 0.285 | 0.26 | – | 0.261 | 0.252
NCI-H727 | 0.681 | 0.632 | 0.55 | 0.689 | 0.478 | 0.771 | 0.683 | 0.867 | 0.766 | 0.585 | 0.293 | 0.251 | 0.33 | 0.183 | 0.34 | – | – | – | – | –
NCI-H1563 | – | – | – | – | – | 0.95 | 0.757 | 0.685 | 0.595 | 0.448 | 0.919 | 0.891 | 0.749 | 0.642 | 0.623 | 0.693 | 0.806 | 0.547 | 0.425 | 0.371
ABC-1 | 0.79 | 0.873 | 0.663 | 0.607 | 0.443 | 0.791 | 0.965 | 0.892 | 0.395 | 0.179 | 0.938 | 0.647 | 0.63 | 0.355 | 0.248 | – | – | – | – | –
